Assay results from PMC3985843 (Journal of the American Chemical Society, 2014).

Columns and labels:
Assay type in all cases: cell-based
[1] = system: P. falciparum D6 (CQS) strain; assay: in vitro antimalarial activity, chloroquine-sensitive D6 strain; settings: Plasmodium falciparum, D6, read-out: IC50 against D6
[2] = system: P. falciparum Dd2 (CQR) strain; assay: in vitro antimalarial activity, chloroquine-resistant Dd2 strain; settings: Plasmodium falciparum, DD2, read-out: IC50 against Dd2
[3] = system: P. falciparum 7G8 (CQR) strain; assay: in vitro antimalarial activity, chloroquine-resistant 7G8 strain; settings: Plasmodium falciparum, 7G8, read-out: IC50 against 7G8

How did the IC50 [1] turn out when CCN(CC)CCCC(C)Nc1ccnc2cc(Cl)ccc12 (stereo not drawn) [chloroquine] was run?
Its IC50 is 14.3 nM.

What about the IC50 [2] of the same molecule?
Its IC50 is 110 nM.

What about the IC50 [3] of the same molecule?
The IC50 was 131 nM.

What does the source list for CO[C@@H]1CC(c2ccc[nH]2)=N[C@]12O[C@@H](C)C[C@@H]1CCCCCCCc3ccc([nH]3)[C@H]12 [compound 5, marineosin A]?
IC50 [1]: 138 nM; IC50 [2]: 127 nM; IC50 [3]: 199 nM
